Consider 3 compounds from patent publication US6656955B2, “Pharmaceutical composition having enhanced antitumor activity and/or reduced side effects, containing an antitumor agent and an hydroximic acid derivative” (priority 1997, dated 2003).

The test system of data set [1] is Wistar rats. Nature of the data set: Tissue damage: intracellular enzyme release into serum of cisplatin-treated rats. Format: in vivo, rat. Particulars: after two weeks, cisplatin 50 mg/kg daily, compound L 40 mg/kg daily. As for the experimental part: (§1) In vivo experiments with rats. […] The animals were healthy (without any tumor inoculation) at the beginning of the experiment, and the dose of the antitumor compound was provocatively/unusually high which by itself would cause tissue damage with high probability. […] During treatment, cardiac function of animals was followed by ECG, and after two weeks of treatment enzymatic activity in the blood of animals was determined.
Tissue damage was evaluated by measuring intracellular release of enzymes. Enzymatic activity was determined by the method of H. U. Bergmeyer. (Methods in Enzymatic Analysis, 2nd edition, Academic Press (1974)/. The following enzymes were measured:
GOT=glutamate-oxalacetate-transaminase,
GPT=glutamate-piruvate-transaminase,
LDH=lactate dehydrogenase,
LipDH=lipoamide-dehydrogenase,
Enzymatic activity is given in mUnit/m1 serum.

The test system of data set [2] is Wistar rats. The data set can be described thus: Cardiac function by ECG in cisplatin-treated rats. Format: in vivo, rat. Particulars: cisplatin 50 mg/kg daily, compound L 40 mg/kg daily. How it is done:
as §1
Cardiac function was monitored by AT-6 ECG on all four limbs. QRS, RR, PR and TQ distances and J point depressions were determined.

The test system of data set [3] is Wistar rats. The data set can be described thus: One month survival after two week treatment of rats. Format: in vivo. The note with it: cisplatin 50 mg/kg daily, compound L 40 mg/kg daily. How it is done: as §1
It was investigated how many percent of animals were still alive following a two week treatment detailed above.

The subject of data set [4] is Sp-2 (mouse myeloma, suspension) cells. Nature of the data set: Surviving tumor cells in cell culture, trypan blue counting. Format: cell-based. The note with it: Sp-2 cells, compound L 40 microgram/ml. As for the experimental part: Experiments with cell culture. Sp-2 (mouse myeloma, suspension) cells were plated on DMEM (Dubelso modified Eagle medium) in the presence of 10% FCS (fetal calf serum). Cells were plated on 96 hole plate with a starting cell number of 10^4/250 μl.
48 hours after treatment, i.e., addition of the above listed compounds, cells in the holes were counted in a method of staining them with 10 microliter of tripaneblue following suspension. Counting was done in B{overscore (u)}rker chamber.
In this case, one portion of cells were plated without the presence of drug, one portion of cells were plated in the presence of 13 microgram/ml fluoroacil, another portion in the presence of 13 microgram/ml fluoroacil+40 microgram/ml compound “L”. Survival rate was examined […] after treatment.

Data set [5] has as its system P-388 leukemia cells. Nature of the data set: Survival of mice inoculated with P-388 leukemia. It is filed as in vivo, BDF1 mice. Particulars: for Long term Percent survival / Long term Survivors/Total: day 45. How it is done:
(§2) In vivo experiments with mice. Single or repeated treatments started on day 1 following transplantation of P-388 or S-180 tumor The therapeutic effectiveness was evaluated on the basis of survival time and tumor volume. The experiments were terminated after 45 days. Long-term survival of mice were not followed beyond 45 days, but the end point was on day 46 following tumor transplantation. The comparative antitumor effect of various treatment groups on the median survival time in days for treated versus control groups was expressed as T/C.
Treatments started 1 day after the i.p. tumor transplantation.

In data set [6] the test system is S-180 sarcoma. The data set can be described thus: Tumor growth inhibition, S-180 solid tumor in mice. Format: in vivo. Particulars: single (FIG. 1) or repeated injections (FIG. 2). As for the experimental part: as §2
In the case of S-180 solid tumor the tumor growth inhibitory effect of compounds was controlled 3 times for a week using digital caliper. Tumor volume was calculated using the following formula: […]
where “a” and “b” are the shortest and the longest diameter, respectively of a given tumor (Tomayko M. M. and Reynolds C. P.: Determination of subcutaneous tumor size in athymic/nude/mice. Cancer Chemother. Pharmacol, 24, p. 148,1989). Mean values (X) and standard deviations (S.D.) were calculated. The statistically significant difference (p) was determined by Student' t test, where appropriate.

The subject of data set [7] is BDF1 male mice. The data set can be described thus: Acute toxicity (survival) in normal mice. The note with it: for Survival % / Survivors/Total: 25 days observation. Format: in vivo. As for the experimental part:
In vivo experiments with mice. […] [c.f. Oncology Report (REP/O.O.I./1988/01)]. First generation hybrid BDF1 (C57B1 female×DBA/2 male) adult male mice, weighing 22-24 g, specified pathogen free (SPF) were used for these experiments. The animals were kept in macrolon cages at 22-24° C. (40-50% humidity), with a lighting regimen of 12/12 h light/dark.
The observation period was terminated after 25 days. Of compound “L” doses, the dose of 750 mg/kg body weight, i.p. was lethal (Table 4).

Setting [8] is: 48 hours, cisplatin 0.35 microgram/ml.
The mark [9] stands for this setting: group 10: CisPt 10 mg/kg i.p., 1 qd.
Where [10] appears, read: group 13: CisPt 3 mg/kg i.p., 5 qd.
Where [11] appears, read: 40 hours, fluoroacil 13 microgram/ml.

On to `N.N.[Cl][Pt][Cl]` [Cisplatin, cis-diammine-dichloroplatinum], for which, in data set [1], the “Enzymatic activity CK (creatine-kinase)” value was found to be 9776 mU/ml, the “Enzymatic activity CS (citrate-synthase)” value came to 22 mU/ml, the “Enzymatic activity GOT (glutamate-oxalacetate-transaminase)” value was 273 mU/ml and the “Enzymatic activity GPT (glutamate-piruvate-transaminase)” value turned out to be 87 mU/ml. Also, in data set [1], the “Enzymatic activity LDH (lactate dehydrogenase)” value was 5136 mU/ml and the “Enzymatic activity LipDH (lipoamide-dehydrogenase)” value is 69 mU/ml. Further, in data set [2], the J point depression stood at 2.1 ± 0.3 mm, the QRS stood at 102 ms and the QRS intensity entry is given as “fluctuating”. Besides, the “One month survival (%)” value in data set [3] amounted to 25%. Also, the “Surviving cell (%)” value in data set [4] (setting [8]) was 12 ± 4%. Moreover, in data set [5] (setting [9]), the T/C % was determined as 147.0%, the “Long term Percent survival” value is 29% and the “Long term Survivors/Total” value is 2/7. Further, the “Mean Survival (days)” value in data set [5] (group 10: CisPt 10 mg/kg i.p., 1 qd, non-long-term survivors (5 mice)) amounted to 16.6 ± 4.6 day⁻¹. Besides, in data set [5] (setting [10]), the T/C % is 257.0%, the “Long term Percent survival” value turned out to be 43% and the “Long term Survivors/Total” value is recorded as 3/7. Also, in data set [5] (group 13: CisPt 3 mg/kg i.p., 5 qd, 4 mice), the “Mean Survival (days)” value worked out at 29.0 ± 6.1 day⁻¹. Further, in data set [6], the “Tumor growth inhibitory effect (tumor growth curves, mean tumor volumes)” value is on record as “significant inhibitory effect”.

For `O=c1[nH]cc(F)c(=O)[nH]1` [Fluoroacil, 5-fluoro-2,4(1H,3H)pyrimidinedione], the “Surviving cell (%)” value in data set [4] (setting [11]) came to 13 ± 3%.

Regarding `Cl.Cl.NC(=NOCC(O)CN1CCCCC1)c1cccnc1` (stereo not drawn) [compound “L”, O-(3-piperidino-2-hydroxyl-1-propyl)niconitic acid amidoxime dihydrochloride], the “Toxicity evaluated on the basis of survival” value in data set [7] (compound L 750 mg/kg body weight, i.p.) was “lethal”; in data set [7] (other single compound L treatments (Table 4)), “no effect on the survival”. Besides, the Survival % in data set [7] (group 1: 200 mg/kg i.p., 1 qd) was determined as 100%; in data set [7] (group 2: 750 mg/kg i.p., 1 qd), 0%; in data set [7] (group 3: 2000 mg/kg p.o., 1 qd), 100%; in data set [7] (group 4: 100 mg/kg i.p., 5 qd), 100%. In addition, the Survivors/Total in data set [7] (group 1: 200 mg/kg i.p., 1 qd) was 7/7; in data set [7] (group 2: 750 mg/kg i.p., 1 qd), 0/7; in data set [7] (group 3: 2000 mg/kg p.o., 1 qd), 7/7; in data set [7] (group 4: 100 mg/kg i.p., 5 qd), 7/7. For the same compound, the “Surviving cell (%)” value in data set [4] (setting [11]) and in data set [4] (setting [8]) was 51 ± 8% each time.
